Residues, ends and D or L forms follow the SMILES beside them. *: point of attachment. Boc = CC(C)(C)OC(=O)*
SMILES | melting point
COc1cc(/C=C/C(=O)CC(=O)C2CC2)ccc1O | 74.5 to 79 °C
CCN(CC)CC(=O)N1c2ccccc2NC(=O)c2c1c(C)cn2C | 174 to 175 °C
CC1CC(=O)NN=C1c1ccc(N2CCN(c3ncccn3)CC2)c([N+](=O)[O-])c1 (stereo not given) | 232 to 233 °C
CC(O)CN1N=CCCC1c1ccc(Cl)c(Cl)c1 (stereo not given) | 75 to 77 °C
CCCCCCc1cc(-c2cccs2)n[nH]1 | 53 to 55 °C
C/C(=C\C(=O)O)c1cnn(C)c1-c1ccc(F)cc1 | 123 to 124 °C
CCC1c2cccn2-c2cc(O)c(F)cc2N1S(=O)(=O)c1ccc(O)c(C)c1 (stereo not given) | 194 to 196 °C
CCCCCCCCCN(CCCCC)CCC(=O)O | 168 to 176 °C
COC(=O)CNC(=O)CNC(=O)OC(C)(C)C (Boc-Gly-Gly-OMe) | 132 to 135 °C
Cc1ccc(C(C)Oc2cnn(C(C)(C)C)c(=O)c2Cl)cc1 (stereo not given) | 104 to 106 °C
CN(C)C(=O)C(CCN1CCC(Nc2nc3cncnc3n2Cc2ccccn2)CC1)(c1ccccc1)c1ccccc1 | 192 °C
COc1ccc(Nc2nc(Nc3ccc(OC)c(Cl)c3)nc(NC3CCCCCC3)n2)cc1Cl | 183 °C
CN1C(=O)C(C(=O)Nc2ccccc2)c2cc3c(cc2S1(=O)=O)CCCC3 (stereo not given) | 203 to 204 °C
Cc1ccc(COn2c(C)c(C(C)C(=O)O)c3cc4c(cc32)OCO4)cc1 (stereo not given) | 172 to 175 °C
CON(c1ccc([N+](=O)[O-])cc1Cl)S(=O)(=O)c1cccc([N+](=O)[O-])c1 | 168 to 169 °C
CC(c1ccc(Cl)c(Cl)c1)n1[nH]c(N)cc1=O (stereo not given) | 127 to 129 °C
Cc1cc(Br)cc(C(=O)c2[nH]c(=O)[nH]c(=O)c2C(C)C)c1 | 266 to 267 °C
CCCc1c(C(=O)C(C)C)c2ccc(C(N)=O)cc2n1Cc1ccccc1Cl | 85 to 86 °C
CC(=O)c1ccc2c(c1)oc(=O)n2CCCCl | 100 to 103 °C
CC(=O)NCCc1coc2ccc3c(c12)OCCO3 | 112 °C
Cc1ccc2c(n1)NC(C)C(=O)N2 (racemic) | 203 to 205 °C
CC(=O)NC[C@H]1CN(c2ccc(N3CCC(c4noc(C)n4)CC3)c(F)c2)C(=O)O1 | 136 to 138 °C
CNC(=O)Cc1cccc2c(=O)cc(C3=CCCCC3)oc12 | 213 to 214 °C
O=[N+]([O-])c1cccc2cc(-c3nccs3)[nH]c12 | 130 to 131 °C
CC1(C)CC(=O)C1(Cl)CC(Cl)(Cl)Cl (stereo not given) | 75 to 76 °C
N=C(N)Nc1ccc(CCC(=O)O)cc1 | > 300 °C

SMILES | melting point
CCCCCCCCCCCCCCCCCC(=O)Nc1cccc(N)c1 | 98 to 102 °C
CCCCCCCCCCCCCCc1ccc(C(=O)CCCCC)c(O)c1 | 44 to 45 °C
Cc1cccc(C)c1NC(=O)C(C)N1CSCC1=O (stereo not given) | 153 to 154 °C
CN(C)C1(c2ccc(C(C)(C)C)cc2)CCC(=O)CC1 | 82.5 to 87 °C
N#Cc1c(Sc2ncc([N+](=O)[O-])s2)nsc1Sc1ncc([N+](=O)[O-])s1 | 197 to 200 °C
Cc1cccc(NC(=O)NC2N=C(c3ccccc3F)c3cccc(C)c3N(CC(=O)c3ccccc3C)C2=O)c1 (stereo not given) | 190 to 196 °C
CN=C(NS(=O)(=O)c1ccc(Cl)c(Cl)c1)SC | 158 to 159 °C
COC(=O)C[C@H](O)CC(=O)C=Cc1c(-c2ccc(F)cc2)c(-c2ccc(F)cc2)c(C(=O)Nc2ccc(S(N)(=O)=O)cc2)n1C(C)C | 109 to 110 °C
CC(=O)OC1CSC(Oc2cccnc2N=CN(C)C)C(OC(C)=O)C1OC(C)=O (stereo not given) | 120 °C
CC(=O)Nc1c(C#N)cnn1-c1ccc(Cl)c(Cl)c1Cl | 222 to 224 °C
Nc1ccn(C2CN3CCC2CC3)n1 (stereo not given) | 112 to 115 °C
Nc1ncc(CCN2CCC(C(=O)c3ccc(F)cc3)CC2)c(O)n1 | 256 °C
COc1cc(OC)nc(NC(=O)NS(=O)(=O)c2ccccc2C(=O)O)n1 | 155 to 157 °C
CCc1nc2c(s1)CC(COS(=O)(=O)c1ccc(C)cc1)CC2 (stereo not given) | 54 to 56 °C
Brc1ccc(-c2ccc(-c3ccc(Br)s3)c3nsnc23)s1 | 247 to 248 °C
O=c1ccoc2c3c(ccc12)OCC(CO)O3 (stereo not given) | 125 °C
O=C1NC(=O)C(Br)(Cc2ccccc2)C(=O)N1 | 164 to 166 °C
COc1ccc(F)c(C(N)=O)c1 | 122 to 124 °C
CCC(=O)Nc1cscn1 | 129 to 132 °C
CC1(C)C(C=C(Cl)Cl)C1(C)C(=O)O (stereo not given) | 137 to 138 °C
CCOC(=O)c1ccc(NCc2cc3c(cc2O)CCCO3)cc1 | 150 °C
CCN1CCc2ccc(Nc3ncc(Cl)c(Nc4ccccc4C(=O)NC)n3)cc2CC1 | 201 °C
COC(=O)c1ccc2ncc(C3CCN(C)CC3)c-2[nH]1 | 200 to 201 °C
Cc1ccc(NS(=O)(=O)c2cccs2)c2[nH]c(C3=NCCS3)cc12 | 198 to 199 °C
CCNC(=O)c1sc(Cl)cc1[Si](C)(C)C | 105 to 108 °C

The next lines start with the values.

melting point | SMILES
213 to 214 °C | Cc1[nH]c2ccccc2c1C(=O)C(=O)N1CCC(Oc2ccc(F)cc2)CC1
168 °C | Cc1cccc(CC(=O)c2ccnc(-c3ccc(OCC(N)=O)cc3)c2)n1
130 to 132 °C | COc1cc2c(cc1OC)N(C(=O)c1ccc(-c3ccccc3C(F)(F)F)c(C)c1)Cc1ccc(C(=O)N(CCO)CCO)n1C2
205 to 206 °C | CS(=O)c1ccnc(-c2nc(=O)c3ccccc3s2)c1 (stereo not given)
153 to 155 °C | CCOc1cccc(-n2cc(-c3ccc4c(c3)OCO4)c3c(N)ncnc32)c1
158 to 159 °C | COc1cccc(-c2ccc3cc(OC)ccc3c2C(=O)c2ccc(O)cc2)c1
131 °C | Cc1cc(C(=O)N2Cc3cccn3Cc3ccccc32)ccc1C1=CCCCC1(C)C
129 to 131 °C | C[C@@H](c1ccc(Br)cc1)N(CC[C@](O)(CC(C)(C)O)c1ccccc1)C(=O)Oc1ccccc1
218 to 219 °C | CCOC(=O)c1cccc2c1N=C(c1ccccc1)CC2=O
241 to 242 °C | CC1(C)c2cc(C(=O)O)ccc2Oc2ncccc21
186 to 187 °C | O=CC(=Cc1ccccc1OCc1ccc(Cl)cc1)C(C=O)=Cc1ccccc1OCc1ccc(Cl)cc1
117 to 120 °C | COc1cc2c(cc1OC)CN(CCCCc1ccc(NC(=O)c3cccc4c(=O)cc(-c5ccccc5)oc34)cc1)CC2
258 to 260 °C | Clc1cc(Cl)c2oc(-c3ccc(C=Cc4ccc(-c5ccccc5)cc4)cc3)cc2c1
92 to 93 °C | CC(=O)OC(CS(=O)(=O)CC(OC(C)=O)c1ccc(N)cc1)c1ccc(N)cc1 (stereo not given)
123 to 125 °C | COC=C(C(=O)OC)N(C)c1nccc(-c2ccccc2)n1
161 to 163 °C | O=C(O)c1snc(-c2ccccc2)c1O
162 °C | COc1ccc(C2COc3c(ccc(O)c3C)C2O)cc1 (stereo not given)
170 °C | CC(=O)NCC1CN(c2ccc(-c3cccc(CN)c3)c(F)c2)C(=O)O1 (stereo not given)
192 to 194 °C | CN(C)CC1Cc2ccc(NC(=O)c3ccc(-c4ccc(Cl)cc4)cc3)cc2C1 (stereo not given)
207 to 209 °C | CC1Cc2c(n(-c3ccccc3)c3ncccc3c2=O)O1 (stereo not given)
164 °C | COc1ccc(S(=O)(=O)N(CC#N)c2ccc(Cl)cc2C(=O)c2ccccc2Cl)cc1OC
182 °C | CCOC(=O)C(=CC=C(O)C(=O)O)Sc1ccc2ccccc2c1
120 °C | COc1ccnc(CSc2nc3cc(OC(F)(F)C(F)Cl)ccc3[nH]2)c1 (stereo not given)
123 to 124 °C | NC(=O)C(c1ccc(F)c(F)c1)c1ccccn1 (racemic)
301 to 302 °C | CN(Cc1cc(C(F)(F)F)cc(C(F)(F)F)c1)C(=O)c1c(-c2ccc(C(=O)O)cc2)c2cccnc2c(=O)n1C

melting point | SMILES
142 to 144 °C | COC(=O)c1c(C)nc2c(c(-c3ccccc3)nn2C)c1-c1ccc(F)cc1
115 to 116 °C | Oc1nn(-c2ccccn2)c(-c2ccccc2)c1Cc1ccccc1
182 to 189 °C | O=C(Cn1nnc2ccccc21)Nc1ccc(-n2nc(C(F)(F)F)c(Cl)c2C2CC2)nc1
63 to 64 °C | CCCN(C)C(=O)N(C)C(=O)Nc1ccccc1
245 to 246 °C | CC(C)c1cccc(C(C)C)c1NC(=O)CNC(c1ccccc1)c1ccc(C(=O)O)cc1 (stereo not given)
181 to 182 °C | CCOCc1nc2c(N)nc3cc(OCc4ccc(OC)cc4)ccc3c2n1CC(C)C
207 to 209 °C | CC(C)n1nc(-c2c(OC3CCOCC3)nc(N)nc2-c2ccccc2)ccc1=O
277 to 279 °C | CCCOc1ccc(C(=O)O)cc1-c1ccc(C#N)c(=O)[nH]1
52 to 57 °C | Cc1ccc2oc(Br)c(-c3ccccc3)c2c1
102 to 104 °C | COC(=O)c1ccc(OC)c2cc(OC)ccc12
83 to 86 °C | CSCC(C)(C)NC(=O)c1ccccc1Cl
105 °C | C[Si](Cn1nc[nH]c1=S)(c1ccccc1F)c1ccccc1F
80 to 82 °C | CCOC(=O)c1cnn(-c2c(Cl)cc(C(F)(F)F)cc2Cl)c1Br
85 to 86 °C | CS(=O)(=O)OCc1cc(OCc2ccccc2)cc(OCc2ccccc2)c1
61 to 63 °C | FC(F)(F)c1ccc(OCCC(Br)c2ccccc2)cc1 (stereo not given)
165 to 166 °C | COc1ccc(NC(=O)N(Cc2ccccc2)Cc2ccccn2)c(NC(=O)c2cc(C(C)(C)C)c(O)c(C(C)(C)C)c2)c1
130 to 131 °C | c1ccc(-c2ccc(-c3nc(COc4ccc(CCCn5ccnc5)cc4)co3)o2)cc1
133 to 134 °C | c1ccc(COc2ccc(-c3nc(COc4ccc(CCCn5ccnc5)cc4)co3)cc2)cc1
88 to 91 °C | BrCC=Cc1ccc(-c2cnc(CSCCOc3ccccc3)o2)cc1
210 to 214 °C | COC(=O)C1=C(C)NC(N)=C(C#N)C1c1ccc(C(F)(F)F)cc1 (stereo not given)
85 to 88 °C | Nc1ccccc1NCCCCCCCCCCCCNc1ccccc1N
267 to 268 °C | COc1c(C)c(OC(=O)c2c(C)c(C)c(OCCCOc3ccc(C(=O)O)cc3)c(C)c2OC)c(C)c(C)c1C(N)=O
144 °C | COC(=O)C1Oc2cc(Cl)ccc2C(C)(c2ccccc2)O1 (stereo not given)
125 to 140 °C | CC(C)Cn1c(C(O)c2ccccc2)nc2c(N)nc3ccccc3c21 (stereo not given)

— a melting point compilation (Tetko et al.; mined from patent text by program, amines drawn as free bases though some values may be those of a salt)
